In the supplement of paper PMC13380429:

Key:
Conditions in all cases: 72 h
[1] = tested on: HepG2; experiment: relative viability EC50 (midpoint between 100% and the lowest measured viability); higher = less toxic
[2] = tested on: U2OS; experiment: as above
[3] = tested on: Calu-3; experiment: as above
[4] = tested on: Vero E6; experiment: as above
[5] = tested on: Caco-2; experiment: as above
[6] = tested on: HepG2; experiment: drug sensitivity score (DSS) for viability; higher = more toxic; extreme values may be limits of the assay
[7] = tested on: U2OS; experiment: as above
[8] = tested on: Calu-3; experiment: as above
[9] = tested on: Vero E6; experiment: as above
[10] = tested on: Caco-2; experiment: as above
[11] = tested on: HepG2; experiment: cell viability relative to DMSO; higher = less toxic
[12] = tested on: U2OS; experiment: as above
[13] = tested on: Calu-3; experiment: as above
[14] = tested on: Vero E6; experiment: as above
[15] = tested on: Caco-2; experiment: as above

| Structure (SMILES) | relative viability EC50 [1] [µM] | relative viability EC50 [2] [µM] | relative viability EC50 [3] [µM] | relative viability EC50 [4] [µM] | relative viability EC50 [5] [µM] | drug sensitivity score [6] | drug sensitivity score [7] | drug sensitivity score [8] | drug sensitivity score [9] | drug sensitivity score [10] | cell viability ([11]; 1 nM) [%] | cell viability ([11]; 10 nM) [%] | cell viability ([11]; 100 nM) [%] | cell viability ([11]; 1000 nM) [%] | cell viability ([11]; 10000 nM) [%] | cell viability ([12]; 1 nM) [%] | cell viability ([12]; 10 nM) [%] | cell viability ([12]; 100 nM) [%] | cell viability ([12]; 1000 nM) [%] | cell viability ([12]; 10000 nM) [%] | cell viability ([13]; 1 nM) [%] | cell viability ([13]; 10 nM) [%] | cell viability ([13]; 100 nM) [%] | cell viability ([13]; 1000 nM) [%] | cell viability ([13]; 10000 nM) [%] | cell viability ([14]; 1 nM) [%] | cell viability ([14]; 10 nM) [%] | cell viability ([14]; 100 nM) [%] | cell viability ([14]; 1000 nM) [%] | cell viability ([14]; 10000 nM) [%] | cell viability ([15]; 1 nM) [%] | cell viability ([15]; 10 nM) [%] | cell viability ([15]; 100 nM) [%] | cell viability ([15]; 1000 nM) [%] | cell viability ([15]; 10000 nM) [%] |
| --- | --- | --- | --- | --- | --- | --- | --- | --- | --- | --- | --- | --- | --- | --- | --- | --- | --- | --- | --- | --- | --- | --- | --- | --- | --- | --- | --- | --- | --- | --- | --- | --- | --- | --- | --- |
| CCCCCC(O)CCCC(=O)O (stereo unspecified) | > 10 | > 10 | > 10 | > 10 | > 10 | 0 | 0 | 0 | 0 | 0.5 | 90.7 | 95.5 | 85.8 | 98.5 | 92.5 | 98.1 | 97.8 | 100 | 95.8 | 102 | 98.6 | 103 | 101 | 95.9 | 99.4 | 86.1 | 102 | 95.1 | 95.3 | 90.2 | 95.3 | 79 | 82.1 | 93.7 | 101 |
| CCCC[C@]1(CC)CS(=O)(=O)c2cc(CNC(CC(=O)O)CC(=O)O)c(OC)cc2[C@@H](c2ccccc2)N1 | > 10 | > 10 | > 10 | > 10 | > 10 | 0 | 0 | 0 | 0 | 0 | 105 | 112 | 108 | 97.7 | 112 | 96.7 | 101 | 96.8 | 104 | 104 | 96.3 | 101 | 98 | 89.5 | 100 | 95.7 | 94.1 | 96.5 | 91.1 | 104 | 90 | 97.8 | 99.7 | 96.5 | 105 |
| CN1CCN(C(=O)c2nc3ccc(Cl)cc3[nH]2)CC1 | > 10 | > 10 | > 10 | > 10 | > 10 | 0 | 0 | 0 | 0 | 0 | 104 | 107 | 96.7 | 106 | 93.8 | 105 | 97.1 | 103 | 98.1 | 101 | 100 | 99.9 | 87.9 | 96.9 | 101 | 97.9 | 106 | 97.8 | 102 | 104 | 106 | 100 | 96.5 | 92.2 | 90.9 |
| COC(=O)Nc1ccc2[nH]cc(CCNC(C)=O)c2c1 | > 10 | > 10 | > 10 | > 10 | > 10 | 0 | 0 | 0 | 0 | 0 | 102 | 94.6 | 98.3 | 96.4 | 91 | 98.2 | 104 | 98 | 97.2 | 96.6 | 103 | 96.6 | 98.1 | 97.8 | 97.8 | 99 | 102 | 103 | 95.3 | 99 | 96.3 | 95.8 | 94.6 | 98.9 | 105 |
| COc1ccc(/C=C/CCCCOc2ccc(C(=O)c3cccc(C(=O)O)c3)cc2CCC(=O)O)cc1 | > 10 | > 10 | > 10 | > 10 | > 10 | 0 | 0 | 0 | 0 | 0 | 102 | 95.3 | 109 | 110 | 106 | 95.8 | 96.2 | 96.3 | 100 | 98.7 | 102 | 84.6 | 102 | 100 | 111 | 93.9 | 96.3 | 100 | 94.4 | 99 | 96.6 | 94 | 102 | 102 | 95.3 |
| CS(=O)(=O)c1ccc(Cn2c3c(c4cc(F)cc(F)c42)CCCC3CC(=O)O)cc1 (stereo unspecified) | > 10 | > 10 | > 10 | > 10 | > 10 | 0 | 0 | 0 | 0 | 0 | 108 | 91 | 97.3 | 95.6 | 94 | 93.1 | 97.2 | 93.5 | 97.1 | 97.6 | 99.7 | 98.4 | 95.3 | 103 | 100 | 98 | 101 | 100 | 99.1 | 95.4 | 97.6 | 96.4 | 96.5 | 96 | 97.7 |
| Cc1cc(-c2nc(C(=O)Nc3cn(C4CCOCC4)nc3C(N)=O)co2)ccn1 | > 10 | > 10 | > 10 | > 10 | > 10 | 2.9 | 0 | 0 | 0 | 0 | 99.9 | 113 | 88.6 | 82.9 | 96.3 | 99 | 94.7 | 99.8 | 100 | 99.3 | 109 | 97 | 85.7 | 95 | 93.2 | 93.5 | 103 | 101 | 93 | 92.1 | 97.5 | 94.4 | 101 | 98.2 | 93.3 |
| Cc1ccc([N+](=O)[O-])cc1S(=O)(=O)N(C)C | > 10 | > 10 | > 10 | > 10 | > 10 | 0 | 0 | 0 | 0 | 0 | 95.7 | 104 | 93.1 | 99.1 | 102 | 103 | 99.7 | 103 | 92.6 | 99.9 | 97.2 | 92.8 | 94.8 | 107 | 105 | 92.8 | 97.9 | 95.6 | 93.1 | 108 | 91.7 | 88.7 | 94.2 | 96.1 | 99.2 |
| Clc1cccc(-c2nnnn2Cc2cccnc2)c1Cl | > 10 | > 10 | > 10 | > 10 | > 10 | 0 | 0 | 0 | 0 | 0 | 101 | 97.5 | 105 | 101 | 103 | 97 | 95.9 | 94.2 | 99.3 | 94.9 | 99.9 | 105 | 96.2 | 98.2 | 97.2 | 106 | 103 | 104 | 99.2 | 102 | 97.6 | 104 | 99.1 | 98.4 | 91.1 |
| O=C(CCc1ccncc1)NNC(=O)N1Cc2ccccc2Oc2ccc(Cl)cc21 | > 10 | > 10 | > 10 | > 10 | > 10 | 0 | 0 | 0 | 0 | 0 | 117 | 106 | 111 | 99.9 | 107 | 96.4 | 103 | 96.8 | 102 | 100 | 103 | 96.4 | 97.3 | 87.8 | 95.4 | 100 | 98.4 | 101 | 94.9 | 109 | 88.1 | 99.1 | 92.7 | 95.6 | 98.4 |
| O=C(Nc1ccc(Oc2ccc(Cl)cn2)c(Cl)c1)c1ccccn1 | > 10 | > 10 | > 10 | > 10 | > 10 | 0 | 0 | 0 | 0 | 0 | 104 | 108 | 109 | 93.7 | 99.1 | 102 | 105 | 99.6 | 104 | 96.2 | 103 | 108 | 95.1 | 98.6 | 97.7 | 101 | 101 | 102 | 96 | 95.8 | 98.1 | 97.8 | 104 | 104 | 93.1 |
| OC(c1ccccc1)C1CCN(CCc2ccccc2)CC1 (stereo unspecified) | > 10 | > 10 | > 10 | > 10 | > 10 | 0 | 0 | 0 | 0 | 0 | 88.4 | 110 | 96.7 | 105 | 114 | 101 | 96.7 | 102 | 98 | 101 | 97.3 | 85 | 111 | 108 | 104 | 96.3 | 94.1 | 93.5 | 93.8 | 106 | 98.4 | 95.2 | 102 | 101 | 95.4 |
| COc1cc(SC)ccc1C(=O)N1CCC(Cc2ccccc2)CC1 [JX-401] | > 10 |  | > 10 | > 10 | > 10 | 0 |  | 0 | 0 | 0 | 104 | 110 | 99.9 | 97.7 | 106 |  |  |  |  |  | 99.4 | 114 | 97.5 | 103 | 97.3 | 101 | 98.6 | 99.8 | 97.6 | 94.8 | 95.5 | 95.9 | 90.9 | 99 | 94.5 |
| O=C1c2ccccc2C(=O)c2ccccc21 [anthraquinone] | > 10 | > 10 | > 10 | > 10 |  | 0 | 0 | 0 | 0 |  | 95.2 | 106 | 96.2 | 94.2 | 92.6 | 105 | 99.7 | 103 | 99.2 | 105 | 94.9 | 97.4 | 95.8 | 88 | 98.2 | 105 | 106 | 99.8 | 104 | 101 |  |  |  |  |  |
